Paper PMC9841523 (Journal of Medicinal Chemistry, 2022)
pIC50: −log10 of the molar value.

How the values were obtained:
[1] = system: 4EBP1 T37/T46 phosphorylation (mTORC1); assay: AlphaLISA/MSD analysis of 4EBP1 phosphorylation in MDA-MB-468 cells; type: cell-based; settings: Homo sapiens, MDA-MB-468, read-out: p4EBP1 IC50
[2] = system: MAPKAPK2, MAPKAPK3; assay: KiNativ kinase panel; type: cell-based, human; settings: 1 μM, MCF-7 Cells, Lys2
[3] = target: T1, CCK1 (CCKA) (h) (agonist radioligand) (Homo sapiens, UniProt P32238); assay: Eurofins Safety Screen 44; type: binding; settings: read-out: % Inhibition of Control Values
T1 construct: purchased ActivX Biosciences (KiNativ)

[4] = system: NEK6, NEK7; assay: KiNativ kinase panel; type: cell-based, human; settings: 1 μM, MCF-7 Cells, Lys2
[5] = target: T2, ETA(h) (agonist radioligand) (Homo sapiens, UniProt P25101); assay: Eurofins Safety Screen 44; type: binding; settings: read-out: % Inhibition of Control Values
T2 construct: purchased ActivX Biosciences (KiNativ)

[6] = system: MAST1, MAST2; assay: KiNativ kinase panel; type: cell-based, human; settings: 1 μM, MCF-7 Cells, Lys2
[7] = target: T3, MAP4K3 (Homo sapiens, UniProt Q8IVH8); assay: KiNativ kinase panel; type: cell-based; settings: 1 μM, MCF-7 Cells
T3 construct: MCF7 cells were exposed to; endogenous in cells; host or cells: MCF7
T3 sequence (Q8IVH8 1-894): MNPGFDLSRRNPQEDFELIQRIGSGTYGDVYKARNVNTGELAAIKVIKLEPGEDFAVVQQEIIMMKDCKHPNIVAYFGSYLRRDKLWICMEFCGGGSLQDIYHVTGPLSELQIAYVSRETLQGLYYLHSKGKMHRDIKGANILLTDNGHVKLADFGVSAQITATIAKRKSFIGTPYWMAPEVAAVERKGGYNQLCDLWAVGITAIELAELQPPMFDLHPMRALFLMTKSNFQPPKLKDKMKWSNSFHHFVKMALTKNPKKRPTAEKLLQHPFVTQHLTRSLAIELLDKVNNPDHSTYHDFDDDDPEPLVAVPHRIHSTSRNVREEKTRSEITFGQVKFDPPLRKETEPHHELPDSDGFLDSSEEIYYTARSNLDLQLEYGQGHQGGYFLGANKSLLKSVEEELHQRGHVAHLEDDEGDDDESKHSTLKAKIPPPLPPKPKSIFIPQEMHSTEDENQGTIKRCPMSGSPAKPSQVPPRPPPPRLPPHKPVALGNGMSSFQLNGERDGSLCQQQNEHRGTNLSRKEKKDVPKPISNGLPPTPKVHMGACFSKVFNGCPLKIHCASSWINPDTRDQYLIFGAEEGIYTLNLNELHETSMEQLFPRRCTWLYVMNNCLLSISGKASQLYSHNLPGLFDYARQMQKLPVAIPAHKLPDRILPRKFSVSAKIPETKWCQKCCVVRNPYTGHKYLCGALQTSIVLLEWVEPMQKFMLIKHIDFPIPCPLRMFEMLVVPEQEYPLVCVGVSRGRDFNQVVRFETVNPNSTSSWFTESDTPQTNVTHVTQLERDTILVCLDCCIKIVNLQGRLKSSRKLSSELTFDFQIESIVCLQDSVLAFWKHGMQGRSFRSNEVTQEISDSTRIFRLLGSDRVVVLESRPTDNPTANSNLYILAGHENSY

[8] = system: MCF-7 (PIK3CA^E545K) cell line-derived xenograft; assay: 28-day study in the MCF-7 CDX model; settings: for tumor volume: MCF-7 CDX, once weekly ip, 28-day study, most significant at 3 or 10 mg/kg; for tolerability (body weight): up to 10 mg/kg ip once weekly
Method: Formulation containing transcutol/solutol HS15/H 2O (5/5/90, %w/w/v) was used, with a dose volume at 5 mL/kg.
Methods for xenograft studies.
MCF-7 xenograft studies. Female Balb/c nude mice (Shanghai Lingchang Biotechnology), 6–8 weeks of age, were inoculated subcutaneously in the right flank with MCF-7 (ECACC-
Three days prior to inoculation, mice were fed with drinking water containing β-estradiol (40 μg/mL). When mean tumor volume reached between 200–400 mm 3, mice were randomized into treatment groups (n = 12/group) for efficacy study, and tumor volume was measured twice weekly by caliper measurements for the duration of the study.
compounds were administered by ip injections at indicated doses, once weekly.

[9] = target: T4, V1a(h) (agonist radioligand) (Homo sapiens, UniProt P37288); assay: Eurofins Safety Screen 44; type: binding; settings: read-out: % Inhibition of Control Values
T4 construct: purchased ActivX Biosciences (KiNativ)

[10] = system: MST1, MST2; assay: KiNativ kinase panel; type: cell-based, human; settings: 1 μM, MCF-7 Cells, Lys2
[11] = target: T5, M1(h) (antagonist radioligand) (Homo sapiens, UniProt P11229); assay: Eurofins Safety Screen 44; type: binding; settings: read-out: % Inhibition of Control Values
T5 construct: purchased ActivX Biosciences (KiNativ)

[12] = system: NMDA (antagonist radioligand); assay: Eurofins Safety Screen 44; type: binding; settings: 10 µM
[13] = target: T6, IRAK4 (Homo sapiens, UniProt Q9NWZ3); assay: KiNativ kinase panel; type: cell-based; settings: 1 μM, MCF-7 Cells
T6 construct: MCF7 cells were exposed to; endogenous in cells; host or cells: MCF7
T6 sequence (Q9NWZ3 1-460): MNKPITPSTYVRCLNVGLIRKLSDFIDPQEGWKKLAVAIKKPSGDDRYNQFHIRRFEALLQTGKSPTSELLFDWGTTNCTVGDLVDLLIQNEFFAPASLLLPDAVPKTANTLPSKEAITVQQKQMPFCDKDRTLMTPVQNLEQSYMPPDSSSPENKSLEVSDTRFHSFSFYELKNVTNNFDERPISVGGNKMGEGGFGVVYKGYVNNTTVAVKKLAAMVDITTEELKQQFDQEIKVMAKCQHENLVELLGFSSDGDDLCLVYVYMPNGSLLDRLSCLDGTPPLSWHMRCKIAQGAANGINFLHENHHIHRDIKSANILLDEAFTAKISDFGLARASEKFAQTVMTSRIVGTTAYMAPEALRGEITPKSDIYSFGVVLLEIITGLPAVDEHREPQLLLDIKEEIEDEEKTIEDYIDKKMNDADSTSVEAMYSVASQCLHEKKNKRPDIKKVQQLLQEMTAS

[14] = system: Wnk1, Wnk2, Wnk4; assay: KiNativ kinase panel; type: cell-based, human; settings: 1 μM; MCF-7 Cells; Activation Loop; IGDLGLATLKR

T2 sequence (P25101 21-427): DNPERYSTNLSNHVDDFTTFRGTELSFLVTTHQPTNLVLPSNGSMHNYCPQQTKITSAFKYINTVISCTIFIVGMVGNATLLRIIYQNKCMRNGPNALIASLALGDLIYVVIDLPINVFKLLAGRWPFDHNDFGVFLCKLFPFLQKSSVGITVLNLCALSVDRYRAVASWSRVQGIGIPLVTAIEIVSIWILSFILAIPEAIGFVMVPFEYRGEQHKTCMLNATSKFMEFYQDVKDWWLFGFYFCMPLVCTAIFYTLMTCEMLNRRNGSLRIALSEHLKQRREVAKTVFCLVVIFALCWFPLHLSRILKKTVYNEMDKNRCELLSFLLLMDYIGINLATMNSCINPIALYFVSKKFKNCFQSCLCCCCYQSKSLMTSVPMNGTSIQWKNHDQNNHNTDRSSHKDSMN
T1 sequence (P32238 whole entry): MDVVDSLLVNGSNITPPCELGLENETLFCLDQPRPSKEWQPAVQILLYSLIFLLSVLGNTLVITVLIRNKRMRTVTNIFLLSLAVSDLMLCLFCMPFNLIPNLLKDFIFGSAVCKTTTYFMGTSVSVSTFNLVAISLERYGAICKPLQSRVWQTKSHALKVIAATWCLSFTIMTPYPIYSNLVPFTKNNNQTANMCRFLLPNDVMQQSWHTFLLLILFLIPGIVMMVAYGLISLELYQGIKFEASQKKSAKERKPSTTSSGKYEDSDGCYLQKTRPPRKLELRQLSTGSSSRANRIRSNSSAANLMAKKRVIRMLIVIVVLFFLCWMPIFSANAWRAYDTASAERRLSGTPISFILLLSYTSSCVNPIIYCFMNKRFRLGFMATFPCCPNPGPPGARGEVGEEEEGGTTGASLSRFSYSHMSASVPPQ
T5 sequence (P11229 whole entry): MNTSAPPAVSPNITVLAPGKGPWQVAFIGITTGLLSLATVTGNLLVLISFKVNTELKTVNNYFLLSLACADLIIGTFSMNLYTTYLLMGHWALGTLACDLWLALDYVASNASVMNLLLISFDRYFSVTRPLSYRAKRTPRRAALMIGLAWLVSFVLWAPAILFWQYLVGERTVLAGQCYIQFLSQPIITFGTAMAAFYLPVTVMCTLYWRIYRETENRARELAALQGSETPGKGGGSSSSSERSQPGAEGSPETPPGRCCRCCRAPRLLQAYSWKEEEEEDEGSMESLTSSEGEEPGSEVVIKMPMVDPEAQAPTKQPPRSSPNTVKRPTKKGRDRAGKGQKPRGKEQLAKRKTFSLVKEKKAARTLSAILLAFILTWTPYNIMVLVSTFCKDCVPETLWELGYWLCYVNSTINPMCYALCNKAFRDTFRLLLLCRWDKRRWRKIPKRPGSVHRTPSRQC
T4 sequence (P37288 whole entry): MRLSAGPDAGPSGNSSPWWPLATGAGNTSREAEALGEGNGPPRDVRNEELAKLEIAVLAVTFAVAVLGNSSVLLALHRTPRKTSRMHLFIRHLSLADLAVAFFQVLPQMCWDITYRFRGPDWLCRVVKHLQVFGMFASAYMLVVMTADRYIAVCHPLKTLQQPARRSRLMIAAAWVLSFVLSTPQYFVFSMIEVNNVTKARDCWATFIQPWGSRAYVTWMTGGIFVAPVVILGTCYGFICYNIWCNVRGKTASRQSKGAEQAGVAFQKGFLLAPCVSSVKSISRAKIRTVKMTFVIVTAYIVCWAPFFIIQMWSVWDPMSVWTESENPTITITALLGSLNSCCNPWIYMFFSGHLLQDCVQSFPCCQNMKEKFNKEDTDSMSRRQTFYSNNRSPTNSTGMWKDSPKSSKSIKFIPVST

**Q.** `CO[C@H]1C[C@@H]2CC[C@@H](C)[C@@](O)(O2)C(=O)C(=O)N2CCCC[C@H]2C(=O)O[C@H]([C@H](C)C[C@@H]2CC[C@@H](OC(=O)NCCOCCOCCOCCOCCOCCOCCOCCOCCC(=O)N3CCc4cc(Cn5nc(-c6ccc7oc(N)nc7c6)c6c(N)ncnc65)ccc4C3)[C@H](OC)C2)C[C@@H](O)[C@H](C)/C=C(\C)[C@@H](O)[C@@H](OC)C(=O)[C@H](C)C[C@H](C)/C=C/C=C/C=C/1C` [compound 38] was tested. Which pIC50 [1] did it give?
**A.** The pIC50 was 9.32.

**Q.** And the “KiNativ Kinase Panel Data” value ([2]; […])?
**A.** The value was -19.9.

**Q.** And the inhibition at 10 µM [3]?
**A.** Its inhibition at 10 µM is -51.3%.

**Q.** And the “KiNativ Kinase Panel Data” value ([4]; […])?
**A.** The value was 11.1.

**Q.** What about the inhibition at 10 µM [5] of the same compound?
**A.** Its inhibition at 10 µM is 16.8%.

**Q.** And the “KiNativ Kinase Panel Data” value ([6]; […])?
**A.** Its value is 19.6.

**Q.** And the “KiNativ Kinase Panel Data” value ([7]; Lys1, NVNTGELAAIKVIK)?
**A.** Its value is 12.2.

**Q.** What about the “KiNativ Kinase Panel Data” value ([7]; Lys2, DIKGANILLTDNGHVK) of the same compound?
**A.** The value was -6.9.

**Q.** And the tumor volume [8]?
**A.** The tumor volume was “reduction in tumor volume”.

**Q.** And the “tolerability (body weight)” value [8]?
**A.** Its value is “acceptable tolerability profile”.

**Q.** What about the inhibition at 10 µM [9] of the same compound?
**A.** The inhibition at 10 µM was 6.5%.

**Q.** And the “KiNativ Kinase Panel Data” value ([10]; […])?
**A.** The value was 3.0.

**Q.** What about the inhibition at 10 µM [11] of the same compound?
**A.** Its inhibition at 10 µM is -5.4%.

**Q.** And the “% Inhibition of Control Values” [12]?
**A.** The value was 13.7%.

**Q.** And the “KiNativ Kinase Panel Data” value ([13]; Lys1, GYVNNTTVAVKK)?
**A.** The value was -7.0.

**Q.** What about the “KiNativ Kinase Panel Data” value ([13]; Lys2, DIKSANILLDEAFTAK) of the same compound?
**A.** The value was -19.3.

**Q.** How did the “KiNativ Kinase Panel Data” value ([2]; DVKPENLLYTSK) turn out when `CO[C@H]1C[C@@H]2CC[C@@H](C)[C@@](O)(O2)C(=O)C(=O)N2CCCC[C@H]2C(=O)O[C@H]([C@H](C)C[C@@H]2CC[C@@H](OC(=O)NCCOCCOCCOCCOCCOCCOCCOCCOCCC(=O)NCCS(=O)(=O)c3ccc(C(=O)N4CCOc5ccc(-c6ccc(N)nc6)cc5C4)c(C)c3F)[C@H](OC)C2)C[C@@H](O)[C@H](C)/C=C(\C)[C@@H](O)[C@@H](OC)C(=O)[C@H](C)C[C@H](C)/C=C/C=C/C=C/1C` [compound 40] was run?
**A.** The value was -27.1.

**Q.** And the “KiNativ Kinase Panel Data” value ([4]; DIKPANVFITATGVVK)?
**A.** The value was -12.6.

**Q.** What about the “KiNativ Kinase Panel Data” value ([6]; DLKPDNLLITSMGHIK) of the same compound?
**A.** The value was 22.5.

**Q.** And the “KiNativ Kinase Panel Data” value ([7]; Lys1, NVNTGELAAIKVIK)?
**A.** The value was -19.2.

**Q.** And the “KiNativ Kinase Panel Data” value ([7]; Lys2, DIKGANILLTDNGHVK)?
**A.** The value was 69.9.

**Q.** What about the “KiNativ Kinase Panel Data” value [14] of the same compound?
**A.** The value was -17.4.

**Q.** What about the tumor volume [8] of the same compound?
**A.** Its tumor volume is “reduction in tumor volume”.

**Q.** What about the “tolerability (body weight)” value [8] of the same compound?
**A.** Its value is “acceptable tolerability profile”.

**Q.** And the “KiNativ Kinase Panel Data” value ([10]; DIKAGNILLNTEGHAK)?
**A.** Its value is -6.5.

**Q.** What about the “KiNativ Kinase Panel Data” value ([13]; Lys1, GYVNNTTVAVKK) of the same compound?
**A.** The value was -35.0.

**Q.** What about the “KiNativ Kinase Panel Data” value ([13]; Lys2, DIKSANILLDEAFTAK) of the same compound?
**A.** The value was -35.4.
